Results published in ChEMBL document CHEMBL1129113, “Adipoyl-6-aminopenicillanic acid is a substrate for deacetoxycephalosporin C synthase (DAOCS)” (Bioorg Med Chem Lett, 1996).

Legend:
Escherichia coli [1] = assay: Enzyme catalytic constant (Kcat) against Deacetoxycephalosporin C synthase
Escherichia coli [2] = assay: Enzyme kinetic constant (Km) against Deacetoxycephalosporin C synthase

CC1(C)S[C@@H]2[C@H](NC(=O)CCCCC(=O)O)C(=O)N2[C@H]1C(=O)O
k cat (Escherichia coli [1]): 0.071 s⁻¹ | Km (Escherichia coli [2]): 1.22 mM

CC1(C)S[C@@H]2[C@H](NC(=O)CCC[C@@H](N)C(=O)O)C(=O)N2[C@H]1C(=O)O
k cat (Escherichia coli [1]): 0.442 s⁻¹ | Km (Escherichia coli [2]): 10.3 mM
